Experimental data from patent US20240400555A1 (Initial Therapeutics, Inc., priority 2023, published 2024).

System: HCT-116 Firefly-luciferase reporter cells
Assay: Cellular c-MYC Reporter Assay
Type: cell-based
Conditions: Homo sapiens; untitled table following Table 8a; HCT-116 Firefly-luciferase reporter cells, 24 h; read-out: pIC50 (converted)
Method in brief: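 Compound exposure lasted 24 h at 37 °C, 5% CO2, in complete McCoy's 5A medium containing 0.2% DMSO, beginning 4–6 h post-seeding (5e4 cells/mL). Firefly luciferase signal measured by luminescence after 10 min ONE-Glo development at room temperature.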

Row | SMILES | IC50 [µM]
1 | O=C(c1ccc(-n2nnc3cccnc32)cc1F)N(c1nccc2ncccc12)[C@@H]1CCCNC1 [Example 249, (R)-4-(3H-[1,2,3]triazolo[4,5-b]pyridin-3-yl)-2-fluoro-N-(1,6-naphthyridin-5-yl)-N-(piperidin-3-yl)benzamide] | 1.41
2 | Cc1cccc2ccnc(N(C(=O)N3CCC(c4cc(C(F)F)no4)CC3)[C@@H]3CCCNC3)c12 [Example 250, (R)-4-(3-(difluoromethyl)isoxazol-5-yl)-N-(8-methylisoquinolin-1-yl)-N-(piperidin-3-yl)piperidine-1-carboxamide] | 0.813
3 | Cc1cn(-c2ccc(C(=O)N(c3nccc4cccc(C)c34)[C@@H]3CCCNC3)c(F)c2)nn1 [Example 251, (R)-2-fluoro-4-(4-methyl-1H-1,2,3-triazol-1-yl)-N-(8-methylisoquinolin-1-yl)-N-(piperidin-3-yl)benzamide] | 0.0676
4 | Cc1cnc(N(C(=O)c2ccc(-n3nnc4cccnc43)cc2F)[C@@H]2CCCNC2)c2c(C)cccc12 [Example 252, (R)-4-(3H-[1,2,3]triazolo[4,5-b]pyridin-3-yl)-N-(4,8-dimethylisoquinolin-1-yl)-2-fluoro-N-(piperidin-3-yl)benzamide] | 1.41
5 | Cc1ccc(C)c2c(N(C(=O)c3ccc(-n4nnc5cccnc54)cc3F)[C@@H]3CCCNC3)nccc12 [Example 253, (R)-4-(3H-[1,2,3]triazolo[4,5-b]pyridin-3-yl)-N-(5,8-dimethylisoquinolin-1-yl)-2-fluoro-N-(piperidin-3-yl)benzamide] | 0.115
6 | Cc1cc(C)c2c(N(C(=O)c3ccc(-n4nnc5cccnc54)cc3F)[C@@H]3CCCNC3)nccc2c1 [Example 254, (R)-4-(3H-[1,2,3]triazolo[4,5-b]pyridin-3-yl)-N-(6,8-dimethylisoquinolin-1-yl)-2-fluoro-N-(piperidin-3-yl)benzamide] | 0.0617
7 | Cc1cn(C)c2c(N(C(=O)c3ccc(-n4nnc5cccnc54)cc3F)[C@@H]3CCCNC3)nccc12 [Example 255, (R)-4-(3H-[1,2,3]triazolo[4,5-b]pyridin-3-yl)-N-(1,3-dimethyl-1H-pyrrolo[2,3-c]pyridin-7-yl)-2-fluoro-N-(piperidin-3-yl)benzamide] | 0.1
8 | CN1CCC(C2CCN(C(=O)N(c3cc4ccccc4cn3)[C@@H]3CCCNC3)CC2)C1 (stereo partly drawn) [Example 256, N-(isoquinolin-3-yl)-4-(1-methylpyrrolidin-3-yl)-N—((R)-piperidin-3-yl)piperidine-1-carboxamide] | 9.12
9 | Cc1cccc2ccnc(N(C(=O)N3CC=C(c4noc5cc(F)ccc45)CC3)[C@@H]3CCCNC3)c12 [Example 257, (R)-4-(6-fluorobenzo[d]isoxazol-3-yl)-N-(8-methylisoquinolin-1-yl)-N-(piperidin-3-yl)-3,6-dihydropyridine-1(2H)-carboxamide] | 4.17
10 | Cc1cccc2ccnc(N(C(=O)N3CCCCC3C(=O)N(C)C)[C@@H]3CCCNC3)c12 (stereo partly drawn) [Example 258, N^2,N^2-dimethyl-N^1-(8-methylisoquinolin-1-yl)-N1-((R)-piperidin-3-yl)piperidine-1,2-dicarboxamide] | 7.24
11 | Cc1cccc2ccnc(N(C(=O)N3CCCCC3c3nc4ccccc4s3)[C@@H]3CCCNC3)c12 (stereo partly drawn) [Example 259, 2-(benzo[d]thiazol-2-yl)-N-(8-methylisoquinolin-1-yl)-N—((R)-piperidin-3-yl)piperidine-1-carboxamide] | 8.32
12 | Cc1cccc2ccnc(N(C(=O)N3CCCC(CC4CCC4)C3)[C@@H]3CCCNC3)c12 (stereo partly drawn) [Example 260, 3-(cyclobutylmethyl)-N-(8-methylisoquinolin-1-yl)-N—((R)-piperidin-3-yl)piperidine-1-carboxamide] | 5.25
13 | Cc1cccc2ccnc(N(C(=O)N3CCCC(C4CCC4)CC3)[C@@H]3CCCNC3)c12 (stereo partly drawn) [Example 261, 4-cyclobutyl-N-(8-methylisoquinolin-1-yl)-N—((R)-piperidin-3-yl)azepane-1-carboxamide] | 5.5
14 | Cc1cccc2ccnc(N(C(=O)N3CCC(c4nc(C5CC5)no4)CC3)[C@@H]3CCCNC3)c12 [Example 262, (R)-4-(3-cyclopropyl-1,2,4-oxadiazol-5-yl)-N-(8-methylisoquinolin-1-yl)-N-(piperidin-3-yl)piperidine-1-carboxamide] | 0.575
15 | Cc1cccc2ccnc(N(C(=O)N3CCC(c4nc(-c5ccccc5)no4)CC3)[C@@H]3CCCNC3)c12 [Example 263] | 1.26
16 | Cc1cccc2ccnc(N(C(=O)N3CCN(c4nsc5ccccc45)CC3)[C@@H]3CCCNC3)c12 [Example 264, (R)-4-(benzo[d]isothiazol-3-yl)-N-(8-methylisoquinolin-1-yl)-N-(piperidin-3-yl)piperazine-1-carboxamide] | 3.98
17 | Cc1cccc2ccnc(N(C(=O)N3CCC4(CC3)OCCc3ccsc34)[C@@H]3CCCNC3)c12 [Example 265, (R)—N-(8-methylisoquinolin-1-yl)-N-(piperidin-3-yl)-4′,5′-dihydrospiro[piperidine-4,7′-thieno[2,3-c]pyran]-1-carboxamide] | 5.75

Row | SMILES | IC50 [µM]
18 | Cc1cccc2ccnc(N(C(=O)N3CCC(n4ncc5ccccc54)CC3)[C@@H]3CCCNC3)c12 [Example 266, (R)-4-(1H-indazol-1-yl)-N-(8-methylisoquinolin-1-yl)-N-(piperidin-3-yl)piperidine-1-carboxamide] | 2.95
19 | Cc1cccc2ccnc(N(C(=O)N3CCCC(C)(c4ccccc4)C3)[C@@H]3CCCNC3)c12 (stereo partly drawn) [Example 267, 3-methyl-N-(8-methylisoquinolin-1-yl)-3-phenyl-N—((R)-piperidin-3-yl)piperidine-1-carboxamide] | 5.37
20 | Cc1cccc2ccnc(N(C(=O)N3CCC(n4c(=O)ccc5ccccc54)CC3)[C@@H]3CCCNC3)c12 [Example 268, (R)—N-(8-methylisoquinolin-1-yl)-4-(2-oxoquinolin-1(2H)-yl)-N-(piperidin-3-yl)piperidine-1-carboxamide] | 5.89
21 | Cc1cccc2ccnc(N(C(=O)N3CCC(c4cccc(O)c4)CC3)[C@@H]3CCCNC3)c12 [Example 269, (R)-4-(3-hydroxyphenyl)-N-(8-methylisoquinolin-1-yl)-N-(piperidin-3-yl)piperidine-1-carboxamide] | 3.55
22 | Cc1cccc2ccnc(N(C(=O)N3CCN(c4nncc5ccccc45)CC3)[C@@H]3CCCNC3)c12 [Example 270] | 2
23 | Cc1cccc2ccnc(N(C(=O)c3cccc(Cn4ccnn4)c3F)[C@@H]3CCCNC3)c12 [Example 271, (R)-3-((1H-1,2,3-triazol-1-yl)methyl)-2-fluoro-N-(8-methylisoquinolin-1-yl)-N-(piperidin-3-yl)benzamide] | 4.79
24 | O=C(c1ccc(Nc2ncccn2)cc1F)N(c1nccc2cccc(Cl)c12)[C@@H]1CCCNC1 [Example 272, (R)—N-(8-chloroisoquinolin-1-yl)-2-fluoro-N-(piperidin-3-yl)-4-(pyrimidin-2-ylamino)benzamide] | 0.437
25 | Cc1cccc2ccnc(N(C(=O)c3cccc(Cn4nc5cccnc5n4)c3F)[C@@H]3CCCNC3)c12 [Example 273, (R)-3-((2H-[1,2,3]triazolo[4,5-b]pyridin-2-yl)methyl)-2-fluoro-N-(8-methylisoquinolin-1-yl)-N-(piperidin-3-yl)benzamide] | 1.7
26 | Cc1cccc2ccnc(N(C(=O)c3ccc(Nc4ncccc4N)cc3F)[C@@H]3CCCNC3)c12 [Example 274, (R)-4-((3-aminopyridin-2-yl)amino)-2-fluoro-N-(8-methylisoquinolin-1-yl)-N-(piperidin-3-yl)benzamide] | 3.8
27 | Cc1cccc2ccnc(N(C(=O)c3ccc(Nc4nccs4)cc3F)[C@@H]3CCCNC3)c12 [Example 275, (R)-2-fluoro-N-(8-methylisoquinolin-1-yl)-N-(piperidin-3-yl)-4-(thiazol-2-ylamino)benzamide] | 3.89
28 | Cc1cccc2ccnc(N(C(=O)c3ccc(Nc4nccc5cccnc45)cc3F)[C@@H]3CCCNC3)c12 [Example 276, (R)-4-((1,7-naphthyridin-8-yl)amino)-2-fluoro-N-(8-methylisoquinolin-1-yl)-N-(piperidin-3-yl)benzamide] | 7.08
29 | Cc1cccc2ccnc(N(C(=O)c3ccc(Nc4ccn(C)n4)cc3F)[C@@H]3CCCNC3)c12 [Example 277, (R)-2-fluoro-4-((1-methyl-1H-pyrazol-3-yl)amino)-N-(8-methylisoquinolin-1-yl)-N-(piperidin-3-yl)benzamide] | 4.9
30 | Cc1cc(C)c2c(N(C(=O)N3CCC(c4cc(C)no4)CC3)[C@@H]3CCCNC3)nccc2c1 [Example 278, (R)—N-(6,8-dimethylisoquinolin-1-yl)-4-(3-methylisoxazol-5-yl)-N-(piperidin-3-yl)piperidine-1-carboxamide] | 0.49
31 | CCOC(=O)c1cc(C2CCN(C(=O)N(c3nccc4cccc(C)c34)[C@@H]3CCCNC3)CC2)on1 [Example 279, ethyl (R)-5-(1-((8-methylisoquinolin-1-yl)(piperidin-3-yl)carbamoyl)piperidin-4-yl)isoxazole-3-carboxylate] | 5.13
32 | Cc1cccc2ccnc(N(C(=O)c3ccc(Nc4ncns4)cc3F)[C@@H]3CCCNC3)c12 [Example 280, 2-fluoro-N-(8-methyl-1-isoquinolyl)-N-[(3R)-3-piperidyl]-4-(1,2,4-thiadiazol-5-ylamino)benzamide] | 0.891
33 | Cc1cccc2ccnc(N(C(=O)c3ccc(Nc4nnc(C(F)(F)F)s4)cc3F)[C@@H]3CCCNC3)c12 [Example 281, 2-fluoro-N-(8-methyl-1-isoquinolyl)-N-[(3R)-3-piperidyl]-4-[[5-(trifluoromethyl)-1,3,4-thiadiazol-2-yl]amino] benzamide] | 2.63
34 | Cc1cccc2ccnc(N(C(=O)c3cccc(Cn4nccn4)c3F)[C@@H]3CCCNC3)c12 [Example 282, (R)-3-((2H-1,2,3-triazol-2-yl)methyl)-2-fluoro-N-(8-methylisoquinolin-1-yl)-N-(piperidin-3-yl)benzamide] | 4.17
